Measurements as given in PMC5419589 (Bioorganic & medicinal chemistry, 2016).
Structures can show the parent of a compound that is named as a salt.

Key:
[1] = system: T. brucei brucei strain BF427; test: T. brucei growth inhibition assay; type: cell-based, Trypanosoma brucei brucei; conditions: for fold enhancement of potency with respect to compound 1: vs 1, T. brucei EC50; for fold reduction of potency compared to compound 2: vs 2, T. brucei EC50; for activity on T. brucei cells (in words): T. brucei EC50 assay; for EC50: Trypanosoma brucei, 48 h, read-out: EC50, concentration required to inhibit growth by 50% of T. brucei brucei, strain BF427, 48H, AlamarBlue
[2] = system: T. brucei brucei (strain TREU667); test: Chronic; type: in vivo, mouse; conditions: for number of mice free of parasitemia/number of mice in the group: same dosing; for relapse with parasites in the blood / suppression of parasitemia during treatment phase: TREU667, 50 mg/kg twice a day oral day 21 to 34
[3] = day 35 post-infection, day 1 post-treatment
[4] = day 36 post-infection, day 2 post-treatment
[5] = day 37 post-infection, day 3 post-treatment
[6] = day 38 post-infection, day 4 post-treatment
[7] = day 39 post-infection, day 5 post-treatment
[8] = day 40 post-infection, day 6 post-treatment

`Cl.NCCN(C(=O)c1ccc(Cl)cc1Cl)c1ccc(Cl)cc1Cl` [Compound 12, N-(2-Aminoethyl)-2,4-dichloro-N-(2,4-dichlorophenyl)benzamide] was tested, and the “fold enhancement of potency with respect to compound 1” value (shortened to “fold enhancement of potency”) [1] was “more than 2 fold”.

With `Cl.NCCCN(C(=O)c1ccc(Cl)cc1Cl)c1ccc(Cl)cc1` [Compound 50, N-(3-Aminopropyl)-2,4-dichloro-N-(4-chlorophenyl)benzamide] the “fold reduction of potency compared to compound 2” value (shortened to “fold reduction of potency”) [1] was 10 fold.

`Cl.NCCN(C(=O)c1ccc(Cl)cc1Cl)c1ccc(Oc2cccc(Cl)c2)cc1` [Compound 17, N-(2-Aminoethyl)-2,4-dichloro-N-[4-(3-chlorophenoxy)phenyl] benzamide hydrochloride] was tested, and the “fold enhancement of potency” value [1] was 4 fold.

With `Cl.NCCN(C(=O)c1c(F)c(F)c(F)c(F)c1F)c1ccc(Cl)cc1` [Compound 41, N-(2-Aminoethyl)-N-(4-chlorophenyl)-2,3,4,5,6-pentafluorobenzamide hydrochloride] the “fold improvement in activity compared to 20” value ([1]; vs 20) was 26 fold.

For `Cl.O=C(c1ccc(Cl)cc1Cl)N(c1ccc(Cl)cc1)c1cccnc1` [Compound 63, 2,4-Dichloro-N-(4-chlorophenyl)-N-(pyridin-3-yl)benzamide], the “activity on T. brucei cells (in words)” value [1] was “inactive”.

For `CC1(C)OB(O)c2cc(NC(=O)c3ccc(F)cc3C(F)(F)F)ccc21` [SCYX-7158, reference compound], the “cure in late-stage model (in words)” value ([2]; 50 mg/kg PO twice per day) was “cured all mice”.

`Cl.NCCN(C(=O)c1cc([N+](=O)[O-])ccc1Cl)c1ccc(Cl)cc1` [Compound 36, N-(2-Aminoethyl)-2-chloro-N-(4-chlorophenyl)-5-nitrobenzamide hydrochloride] was tested, and the “times less potent than 2-chloro analogue 23” value ([1]; vs 23) was 3 fold.

`O=C(c1ccc(Cl)cc1Cl)N(CCN1CCOCC1)c1ccc(Cl)cc1` [Compound 48, 2,4-Dichloro-N-(4-chlorophenyl)-N-[2-(morpholin-4-yl)ethyl] benzamide] was tested, and the “activity on T. brucei cells (in words)” value [1] was “inactive”.

For `Cl.NCCN(C(=O)c1ccc(Cl)cc1Cl)c1ccc(Br)cc1` [Compound 3, N-(2-Aminoethyl)-N-(4-bromophenyl)-2,4-dichlorobenzamide hydrochloride], the “fold enhancement of potency” value [1] was 4 fold.

For `Cl.NCCN(C(=O)c1ccc(F)cc1F)c1ccc(Cl)cc1` [Compound 40, N-(2-Aminoethyl)-N-(4-chlorophenyl)-2,4-difluorobenzamide hydrochloride], the “fold more active than 2-floro (30) or 4-fluoro (28) derivatives” value ([1]; vs 30 or 28) was “at least 3 fold”.

In the case of `N#CCN(C(=O)c1ccc(Cl)cc1Cl)c1ccc(Cl)cc1` [Compound 60, 2,4-Dichloro-N-(4-chlorophenyl)-N-(cyanomethyl)benzamide], the “activity on T. brucei cells (in words)” value [1] is reported as “inactive”.

`O=C(c1ccc(Cl)cc1Cl)N(CCO)c1ccc(Cl)cc1` [Compound 49, 2,4-Dichloro-N-(4-chlorophenyl)-N-(2-hydroxyethyl)benzamide] was tested, and the “activity on T. brucei cells (in words)” value [1] was “inactive”.

For `CNCCN(C(=O)c1ccc(Cl)cc1Cl)c1ccc(Cl)cc1.Cl` [Compound 58, 2,4-Dichloro-N-(4-chlorophenyl)-N-[2-(methylamino)ethyl] benzamide hydrochloride], the “fold reduction of potency” value [1] was 5 fold.

With `CCN(C(=O)c1ccc(Cl)cc1Cl)c1ccc(F)cc1` [Compound 45, 2,4-Dichloro-N-ethyl-N-(4-fluorophenyl)benzamide] the “activity on T. brucei cells (in words)” value [1] was “eliminated anti-T. brucei activity” and the EC50 [1] was over 10000 nM.

With `N=C(N)c1ccc(/N=N/Nc2ccc(C(=N)N)cc2)cc1` [Diminazene, diminazene aceturate, reference compound] the “number of mice free of parasitemia/number of mice in the group” value [2, 3] was 3/3, the “number of mice free of parasitemia/number of mice in the group” value [2, 4] was 3/3 and the “number of mice free of parasitemia/number of mice in the group” value [2, 5] was 3/3. For the same compound, the “number of mice free of parasitemia/number of mice in the group” value [2, 6] was 3/3, the “number of mice free of parasitemia/number of mice in the group” value [2, 7] was 3/3 and the “number of mice free of parasitemia/number of mice in the group” value [2, 8] was 3/3. The “number of mice free of parasitemia/number of mice in the group” value ([2]; day 41–42 post-infection, day 7–8 post-treatment) was 3/3, the “number of mice free of parasitemia/number of mice in the group” value ([2]; day 43–45 post-infection, day 9–11 post-treatment) was 3/3 and the “number of mice free of parasitemia/number of mice in the group” value ([2]; day 46–49 post-infection, day 12–15 post-treatment) was 1/3. For the same compound, the “number of mice free of parasitemia/number of mice in the group” value ([2]; day 50–51 post-infection, day 16–17 post-treatment) was 0/3.

`Cl.NCCN(C(=O)c1ccc(Cl)cc1Cl)c1ccc([N+](=O)[O-])cc1` [Compound 9, N-(2-Aminoethyl)-2,4-dichloro-N-(4-nitrophenyl)benzamide hydrochloride] was tested, and the “activity on T. brucei cells (in words)” value [1] was “eliminated activity”.

For `CC(C)c1ccc(COc2ccc(N(CCN)C(=O)c3cccnc3Cl)cc2)cc1.Cl` [Compound 72, N-(2-Aminoethyl)-2-chloro-N-(4-{[4-(propan-2-yl)phenyl]methoxy}phenyl)pyridine-3-carboxamide hydrochloride], the “relapse with parasites in the blood” value [2] was “all mice relapsed”, the “suppression of parasitemia during treatment phase” value [2] was “complete suppression” and the “number of mice free of parasitemia/number of mice in the group” value [2, 3] was 5/5. The “number of mice free of parasitemia/number of mice in the group” value [2, 4] was 5/5, the “number of mice free of parasitemia/number of mice in the group” value [2, 5] was 4/5 and the “number of mice free of parasitemia/number of mice in the group” value [2, 7] was 2/5.

For `COc1ccc(N(CCN)C(=O)c2ccc(Cl)cc2Cl)cc1.Cl` [Compound 8, N-(2-Aminoethyl)-2,4-dichloro-N-(4-methoxyphenyl)benzamide hydrochloride], the “activity on T. brucei cells (in words)” value [1] was “eliminated activity”.

`Cl.NCCN(C(=O)c1ccccc1C(F)(F)F)c1ccc(OCc2ccc(Cl)cc2)cc1` [Compound 66, N-(2-Aminoethyl)-N-{4-[(4-chlorophenyl)methoxy]phenyl}-2-(trifluoromethyl)benzamide hydrochloride] was tested, and the “activity on T. brucei cells (in words)” value [1] was “single digit nanomolar EC50 values”.

In the case of `Cl.NCCN(C(=O)c1ccc(Cl)cc1Cl)c1ccc(Cl)cc1` [Compound 2, N-(2-Aminoethyl)-2,4-dichloro-N-(4-chlorophenyl)benzamide], the “fold enhancement of potency” value [1] is reported as 4 fold.

With `Cl.NCCN(C(=O)c1ccc(Cl)cc1Cl)c1ccc(Oc2ccc(Cl)cc2)cc1` [Compound 16, N-(2-Aminoethyl)-2,4-dichloro-N-[4-(4-chlorophenoxy)phenyl] benzamide hydrochloride] the “fold enhancement of potency” value [1] was 7 fold.

For `COc1ccccc1C(=O)N(CCN)c1ccc(Cl)cc1.Cl` [Compound 26, N-(2-Aminoethyl)-N-(4-chlorophenyl)-2-methoxybenzamide hydrochloride], the “times less active compared to 23, 24” value ([1]; vs 23, 24) was “at least 5 fold” and the “times more potent than 4-methoxy (27)” value ([1]; vs 27) was “at least 4 fold”.

`NCCN(C(=O)c1ccccc1C(F)(F)F)c1ccc(Cl)cc1` [Compound 42, N-(2-aminoethyl)-N-(4-chlorophenyl)-2-(trifluoromethyl) benzamide hydrochloride] showed an EC50 [1] of 180 nM.

In the case of `Cl.NCCN(C(=O)c1ccc(Cl)cc1Cl)c1cccc(Cl)c1` [Compound 11, N-(2-Aminoethyl)-2,4-dichloro-N-(3-chlorophenyl)benzamide hydrochloride], the “fold reduction of potency” value [1] is reported as 10 fold.

`Cc1cc(C)cc(COc2ccc(N(CCN)C(=O)c3ccc(Cl)cc3Cl)cc2)c1.Cl` [Compound 76, N-(2-Aminoethyl)-2,4-dichloro-N-{4-[(3,5-dimethylphenyl)methoxy]phenyl}benzamide hydrochloride] was tested, and the “relapse with parasites in the blood” value [2] was “all mice relapsed”, the “suppression of parasitemia during treatment phase” value [2] was “partial suppression” and the “number of mice free of parasitemia/number of mice in the group” value [2, 3] was 3/4. For the same compound, the “number of mice free of parasitemia/number of mice in the group” value [2, 4] was 3/4, the “number of mice free of parasitemia/number of mice in the group” value [2, 5] was 3/4 and the “number of mice free of parasitemia/number of mice in the group” value [2, 6] was 3/4. The “number of mice free of parasitemia/number of mice in the group” value [2, 7] was 2/4 and the “number of mice free of parasitemia/number of mice in the group” value [2, 8] was 1/4.
